Experimental findings from ChEMBL document CHEMBL1201862, “PubChem BioAssay data set” (2004) are described below.

Some test systems named below: CAKI-1; HCT-116; Malme-3M; HCC 2998; RPMI-8226; UACC-62; A549; TK-10; A498; SK-MEL-28; OVCAR-8; NCI-H522; SF-268; SK-MEL-2; SNB-75; SK-MEL-5; HOP-92.
What all share (test): NCI-60 cell line screen, 48 h

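The compound was tested at five concentrations on cells cultured in 96-well plates, with a 48-hour exposure period. GI50 marks 50% less growth.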 Activity calls are given as the source filed them. No stated cut-off is given here; in the data, active = GI50 up to about 1.1 µM and inactive = higher.

As to `COC(=O)/C(=C\c1ccc(N(CCC#N)CCC#N)cc1)NC(=O)c1cc([N+](=O)[O-])ccc1Cl`, the GI50 in the assay on CAKI-1, in the assay on HCT-116, in the assay with Malme-3M, with HCC 2998, with RPMI-8226 and in the assay on UACC-62 was > 100 µM (inactive) throughout. In addition, the GI50 in the assay on A549, in the assay with TK-10, in the assay with A498, in the assay with SK-MEL-28, with OVCAR-8 and in the assay with NCI-H522 was > 100 µM (inactive) each time. Besides, the GI50 in the assay with SF-268, with SK-MEL-2, in the assay on SNB-75 and in the assay with SK-MEL-5 was > 100 µM (inactive) each time.

Regarding `CP1(=O)CCCCC1`, the GI50 in the assay on HOP-92, in the assay with CAKI-1, in the assay on HCT-116, with Malme-3M, in the assay with HCC 2998 and in the assay on RPMI-8226 was > 100 µM (inactive) each time. The GI50 in the assay with UACC-62, with A549, in the assay on TK-10, in the assay with SK-MEL-28, in the assay on OVCAR-8 and with SF-268 was > 100 µM (inactive) in each case. Further, the GI50 with SK-MEL-2, with SNB-75 and in the assay on SK-MEL-5 was > 100 µM (inactive) in each case.

In the case of `C[C@@H](NC1CCC[C@H]1O)c1ccccc1` (some centres undefined), the GI50 in the assay with HOP-92, with CAKI-1, in the assay with HCT-116, in the assay on Malme-3M, in the assay with HCC 2998 and in the assay on RPMI-8226 was > 100 µM (inactive) throughout. Moreover, the GI50 in the assay with UACC-62, in the assay with A549, in the assay with TK-10, with SK-MEL-28, in the assay on OVCAR-8 and in the assay on SK-MEL-2 was > 100 µM (inactive) each time. Moreover, the GI50 with SNB-75 and in the assay with SK-MEL-5 was > 100 µM (inactive) in each case.

As to `OCC(O)C(O)C(O)c1nn(-c2ccccc2)c2nc3cc(Cl)c(Cl)cc3nc12` (centres undefined), the GI50 with CAKI-1 was 20 µM (inactive); in the assay with HCT-116, 54.5 µM (inactive); in the assay on Malme-3M, 19.3 µM (inactive); in the assay on HCC 2998 it was 32.9 µM (inactive); in the assay with RPMI-8226, 25.4 µM (inactive); in the assay on UACC-62 it was 28.8 µM (inactive). Besides, the GI50 in the assay with A549 was 26.7 µM (inactive); with TK-10 it was 36.1 µM (inactive); in the assay on SK-MEL-28, 48 µM (inactive); in the assay on OVCAR-8 it was 70.8 µM (inactive); with NCI-H522, 27.5 µM (inactive); with SF-268 it was 55.1 µM (inactive). In addition, the GI50 is 33 µM (inactive) with SK-MEL-2 and 20.3 µM (inactive) in the assay on SNB-75.

`C1CN2CCN3CCN4CCN1[PH]243`: the GI50 with HCT-116, with Malme-3M, in the assay with HCC 2998, in the assay with RPMI-8226, in the assay with UACC-62 and with A549 was > 100 µM (inactive) throughout. Further, the GI50 in the assay with TK-10, in the assay with A498, in the assay on SK-MEL-28, in the assay on OVCAR-8, in the assay with NCI-H522 and with SK-MEL-2 was > 100 µM (inactive) each time. For the same compound, the GI50 with SNB-75 and with SK-MEL-5 was > 100 µM (inactive) throughout.

In the case of `CCOP(=O)(OCC)C1CCCCOC1=O` (centres undefined), the GI50 with CAKI-1, in the assay with HCT-116, in the assay with Malme-3M, with HCC 2998, in the assay with RPMI-8226 and in the assay on UACC-62 was > 100 µM (inactive) in each case. Besides, the GI50 in the assay on A549, with TK-10, in the assay with A498, in the assay on SK-MEL-28, with OVCAR-8 and in the assay with SF-268 was > 100 µM (inactive) each time. The GI50 in the assay with SK-MEL-2, in the assay with SNB-75 and in the assay on SK-MEL-5 was > 100 µM (inactive) in each case.

On to `COC(=O)C12C(=O)O[C@H](C)C1(O)C(C)C(=O)N2C` (some centres undefined), for which the GI50 in the assay on HOP-92 was < 0.01 µM (active); in the assay on CAKI-1, > 100 µM (inactive); in the assay on HCT-116, > 100 µM (inactive); in the assay on Malme-3M, > 100 µM (inactive); with HCC 2998, > 100 µM (inactive); in the assay on RPMI-8226, > 100 µM (inactive). The GI50 with UACC-62, in the assay with TK-10, in the assay with SK-MEL-28, in the assay with OVCAR-8, in the assay with SK-MEL-2 and in the assay on SK-MEL-5 was > 100 µM (inactive) in each case.

On to `CCN(CC)CCCC(C)Nc1ccnc2ccc3nn(C)nc3c12` (centres undefined), for which the GI50 in the assay on CAKI-1 is > 100 µM (inactive); in the assay on HCT-116, 26.2 µM (inactive); in the assay with Malme-3M, 50.6 µM (inactive); in the assay on HCC 2998, 40.2 µM (inactive); in the assay on RPMI-8226, 53 µM (inactive); in the assay on UACC-62, > 100 µM (inactive). The GI50 in the assay with A549 was 47.9 µM (inactive); in the assay with TK-10, > 100 µM (inactive); in the assay on A498 it was 37 µM (inactive); in the assay on OVCAR-8, 41.4 µM (inactive); in the assay with SF-268 it was > 100 µM (inactive); in the assay on SNB-75, > 100 µM (inactive). Moreover, in the assay on SK-MEL-5, the GI50 was > 100 µM (inactive).

Take `Cn1c2c(c3ccccc31)C1CCCCC1C1C(=O)NC(=O)C21` (centres undefined): the GI50 was 32.1 µM (inactive) in the assay with Malme-3M; 52.2 µM (inactive) with HCC 2998; 41.8 µM (inactive) with RPMI-8226; > 100 µM (inactive) in the assay on UACC-62; 43.3 µM (inactive) in the assay on A549; > 100 µM (inactive) in the assay with TK-10. Also, the GI50 was 22.5 µM (inactive) in the assay on A498; 88.9 µM (inactive) in the assay on SK-MEL-28; 66.2 µM (inactive) in the assay on OVCAR-8; 70.1 µM (inactive) with SF-268; 33.1 µM (inactive) with SNB-75; 45 µM (inactive) in the assay with SK-MEL-5.

Turning to `OC12c3ccccc3C1CCCCC2N1CCCC1` (centres undefined), the GI50 in the assay on HCT-116, in the assay with Malme-3M, in the assay on RPMI-8226, with UACC-62, with A549 and with TK-10 was > 100 µM (inactive) in each case. The GI50 in the assay on SK-MEL-28, with OVCAR-8, in the assay on NCI-H522, in the assay on SF-268, in the assay on SK-MEL-2 and with SNB-75 was > 100 µM (inactive) in each case. For the same compound, in the assay on SK-MEL-5, the GI50 was > 100 µM (inactive).

Turning to `Cc1nc2ccccc2c(=O)n1/N=C(\N=N\c1ccc(Cl)cc1)c1ccc(N(C)C)cc1`, the GI50 was > 100 µM (inactive) with CAKI-1; 46.1 µM (inactive) in the assay with HCT-116; 70.3 µM (inactive) with UACC-62; > 100 µM (inactive) in the assay with A549; > 100 µM (inactive) in the assay with TK-10; > 100 µM (inactive) in the assay with A498. Moreover, the GI50 in the assay with SK-MEL-28 was 26.2 µM (inactive); in the assay with OVCAR-8, > 100 µM (inactive); in the assay on NCI-H522 it was 38.7 µM (inactive); in the assay on SF-268, 32.7 µM (inactive); in the assay with SK-MEL-5, 54.6 µM (inactive).
